This is an account of results in publication PMC2607543, “Peptides Derived from HIV-1 Integrase that Bind Rev Stimulate Viral Genome Integration” (PLoS ONE, 2009).

Data set [1] relates to viral Gag or Nef DNA sequences. Format: cell-based, HIV-1. To be noted: INr 12.5 µM or AZT 2 µM, 2 h before infection, 6 h after; Gag (A) or Nef (B) PCR; Fig 8A and B.
The test system of another data set is HIV-1 in Sup-T1 cells. Put plainly: Time-of-addition assay, viral p24 in Sup-T1 cells. Format: cell-based. To be noted: MOI 2; dextran sulfate 20 µM, AZT 2 µM, LEDGF 402–411 12.5 µM; p24 at 48 h PI; Fig 8C. Here is the method:
Figure 8 Virus-cell adsorption and viral reverse-transcriptase activity are not affected by the INr peptides. (A and B) Estimation of viral DNA in virus-infected cells: Sup-T1 cells were incubated with the indicated peptides or with AZT for 2 h and then were infected with HIV. Following another 6 h incubation, the viral Gag (A) or Nef (B) DNA sequences were amplified using specific primers. The reaction was terminated after 30 cycles. Lanes: 1) INr-1 (12.5 µM); 2) INr-2 (12.5 µM); 3) AZT (2 µM); 4) untreated cells; 5) uninfected cells. […] (C) Influence of the time of addition on P24 production: Sup-T1 cells were infected with HIV-1 at a MOI of 2, and the indicated constituents were added at different time points PI (0, 2, 4,…, 24 h). Viral p24 was determined at 48 h PI. No addition (Blue X); no virus (Gray diamond); dextran sulfate 20 µM (Brown asterisk); AZT 2 µM (Red empty circle); INr-1 12.5 µM (Green diamond); INr-2 12.5 µM (Magenta square); LEDGF 402–411 (Black full circle).
Sup T1 cells were infected with wild-type HIV-1 at a MOI of 2, and the test compounds were added at different time points after infection (0, 2, 4,…, 24 h). Viral p24 production was determined at 48 h PI [59]. Dextran sulfate was tested at 20 µM, AZT at 2 µM, LEDGF 402-411, INr-1 and INr-2 at 12.5 µM.

The test system of another data set is H9 lymphocytes. Put plainly: MTT cell toxicity assay, H9. Format: cell-based. To be noted: up to about 62 µM, Fig 4C. The method, then:
(§1) Figure 4 Cell penetration and toxicity of INr peptides. (A) Fluorescein-labeled INr-1, INr-2, and IN-3 (a known nonpermeable peptide) each at 10 µM, were incubated for 2 h at 37°C with HeLa cells. The cells were then washed three times with PBS and visualized by confocal microscopy. (B) Cell toxicity was determined by MTT assay in HeLa TZM-bl cells. (C) Same as (B) but in H9 lymphocytes. Experimental conditions are described in Materials and Methods.
(§2) Following incubation of the cells with the indicated peptides, the medium was removed and the cells were further incubated in Earl's solution containing 0.3 mg/ml MTT for 1 h. Subsequently, the solution was removed and the cells were dissolved in 100 µl DMSO for 10 min at room temperature. The DMSO-solubilized cells were transferred to a 96-well ELISA plate and OD values were monitored at a wavelength of 570 nm.
A general note: Formazan colour is commonly taken as a measure of viable cells.

The next data set relates to HeLa TZM-bl cells. Put plainly: MTT cell toxicity assay, HeLa TZM-bl. It counts as cell-based. The following applies: up to about 62 µM, Fig 4B. The method, then:
as §1, §2

The test system of a further data set is HIV-1 IN. The following applies: ref [36]; cited from earlier work. Here is the method: Dextran sulfate, various peptides and AZT were added at different times to HIV-1 infected Sup-T1 cells and the amount of viral P24 protein—reflecting efficiency of virus infection—was estimated at 48 h PI.
The next data set has as its system HIV-1 infected cells. Put plainly: Cell death and syncytia formation in infected, INr-treated cells. It counts as cell-based. The following applies: combination of the peptide and the virus; not shown.

Where no end group is shown, it is not given here. Bounds are passed on as bounds.

Regarding `Cc1cn([C@H]2C[C@H](N=[N+]=[N-])[C@@H](CO)O2)c(=O)[nH]c1=O` [AZT, azidothymidine], the “Effect on reverse transcription / reverse-transcribed viral DNA” value in data set [1] is on record as “reverse-transcribed viral DNA is absent”. Also, the “Time of addition post infection up to which infection is inhibited” value (“Time … to which infection is inhibited” below) in the data set with HIV-1 in Sup-T1 cells is reported as no more than 10 h.

For the molecule `CC[C@H](C)[C@H](NC(=O)[C@H](CCCCN)NC(=O)CNC(=O)[C@H](CCC(=O)O)NC(=O)[C@H](CC(C)C)NC(=O)[C@H](Cc1c[nH]cn1)NC(=O)[C@@H](NC(=O)[C@@H](N)Cc1c[nH]c2ccccc12)[C@@H](C)O)C(=O)N[C@H](C(=O)N[C@@H](CC(C)C)C(=O)N[C@H](C(=O)N[C@@H](C)C(=O)N[C@H](C(=O)N[C@@H](Cc1c[nH]cn1)C(=O)N[C@H](C(=O)N[C@@H](C)C(=O)O)C(C)C)C(C)C)C(C)C)[C@@H](C)CC` [INr-1], the “Toxic effect, H9 T-cell lymphocytes” value in the data set with H9 lymphocytes is listed as “No toxic effect”. Further, the “Toxic effect, HeLa TZM-bl cells” value in the data set with HeLa TZM-bl cells is “No toxic effect”.

As to “LEDGF 402–411: LEDGF-derived peptide (aa 402–411) which has been shown to block viral IN enzymatic activity (KIRRFKVSQV; UniProt O75475 402-411, looked up, fragment)”, the “Time … to which infection is inhibited” value in the data set with HIV-1 in Sup-T1 cells is “about 18 h”. Also, the “Inhibition of IN enzymatic activity by LEDGF-derived peptides” value with HIV-1 IN is “block viral IN enzymatic activity in vitro and in vivo”.

With WGSNFTSTTVKA [INr-2], the “Toxic effect, H9 T-cell lymphocytes” value in the data set with H9 lymphocytes is recorded as “No toxic effect”. Moreover, the “Toxic effect, HeLa TZM-bl cells” value in the data set with HeLa TZM-bl cells is given as “No toxic effect”. The “Cell death and syncytia formation with peptide and virus” value in the data set with HIV-1 infected cells was “increase in cell death and syncytia formation”.

For dextran sulfate, the “Time … to which infection is inhibited” value in the data set with HIV-1 in Sup-T1 cells is recorded as no more than 4 h.
